Results reported in patent US7053175B1, “Synthetic peptides useful in biological assays for detecting infections caused by group O HIV-1 viruses” (Bio-Rad Pasteur, priority 1997, dated 2006).

tested on: serum samples from patients infected with group O HIV-1 retroviruses; test: Immunoenzymatic test: Test No. 2 (immunoreactivity with diluted sera); assay type: binding, human; details: CLASS A (a: OD<0.100); sera of Table V; solid phase peptide 2 μg/ml
Source text: The serum samples from patients infected with group O HIV-1 retroviruses were obtained by the Yaounde Pasteur Centre in Cameroon and were serotyped group O according to the serological algorithm described in AIDS (1977), 11, pp. 445-453. A genotyped sample (Maryland) is obtained from the United States. These samples were previously diluted in negative human serum at the dilutions given in Table V, in order to have a sufficient volume for the different immunoreactivity tests.
The synthetic peptides used were dissolved in water at a concentration of 1 mg/ml (stock solution). For the solid phase sensitization step (“coating”), the procedure was carried out as described for Example 2.
The serum samples were diluted 1/5 with a skimmed milk solution (citrate buffer supplemented with 0.01% of phenol red, 0.25% of chloroform and 0.25% of Kathon®), deposited in the wells of plates and incubated for 30 min at 40° C.
After washing with a Tris-NaCl buffer solution pH 7.4 containing 0.1% of Tween® 20 and 0.001% of sodium merthiolate, 100 μl of a solution of conjugate consisting of horseradish peroxidase-labelled anti-human IgG and IgM goat antibodies, containing as preservative 0.01% of sodium merthiolate, in solution in a citrate buffer solution supplemented with 30% glycerol and 25% normal foetal calf serum, were added to each well of the plates and then they were incubated for 30 min at 40° C.
After washing with a Tris-NaCl buffer solution pH 7.4 containing 0.1% of Tween® 20 and 0.001% of sodium merthiolate, the colour was developed as described in Example 2.
The relative absorbance (OD) (A490-A620) read in each well is proportional to the immunoreactivity of each peptide. It indicates the ability of each peptide to react with the biological sample with which the test is carried out.
The reactivity of the peptides of the invention, peptides No. 10 (14B), No. 11 (18B), No. 12 (19B), No. 14 (21B), No. 15 (22B), No. 16 (23B) all in cyclized form, was compared with that of three homologous synthetic peptides having, as sequence, a portion of the natural sequence of the envelope (env) of a group O HIV-1 retrovirus. These peptides are two peptides derived from the VAU isolate—the peptide VAU 22 AA and the peptide VAU 35 AA—and the peptide MVP 5180 (designated “MVP 5180” in Table V). The peptides VAU 22 AA and VAU 35 AA (whose structure is indicated in Example 2) and the peptide MVP 5180 comprise an immunodominant epitope of gp41.
All these peptides were used in cyclized form. The sequence of the MVP 5180 peptide is the following:
For each peptide tested, the samples were arranged into four classes (a, b, c and d) corresponding to various levels of relative absorbance read at the wavelengths A492-A620: • for a: OD<0.100, • for b: 0.100<OD<0.500, • for c: 0.500<OD<1.000, • for d: OD>1.000, thus making it possible to evaluate the degree of immunoreactivity of the peptides.

Row | Sequence | Number of samples
1 | LLNSWGCKGRLVCYTS [PEPTIDE No. 10 (14B)] | 3
2 | ALETLLQNQQLLNSWGCRGRLVCYTSVRWNET [PEPTIDE No. 11 (18B)] | 0
3 | RALETLLNQQRLLNSWGCKGRLVCYTSV [PEPTIDE No. 15 (22B)] | 0

same assay, conditions: CLASS B (b: 0.100<OD<0.500); sera of Table V; solid phase peptide 2 μg/ml

Row | Sequence | Number of samples
4 | LLNSWGCKGRLVCYTS [PEPTIDE No. 10 (14B)] | 2
5 | ALETLLQNQQLLNSWGCRGRLVCYTSVRWNET [PEPTIDE No. 11 (18B)] | 9
6 | RALETLLNQQRLLNSWGCKGRLVCYTSV [PEPTIDE No. 15 (22B)] | 2

same assay, conditions: CLASS C (c: 0.500<OD<1.000); sera of Table V; solid phase peptide 2 μg/ml

Row | Sequence | Number of samples
7 | LLNSWGCKGRLVCYTS [PEPTIDE No. 10 (14B)] | 5
8 | ALETLLQNQQLLNSWGCRGRLVCYTSVRWNET [PEPTIDE No. 11 (18B)] | 4
9 | RALETLLNQQRLLNSWGCKGRLVCYTSV [PEPTIDE No. 15 (22B)] | 4

same assay, conditions: CLASS D (d: OD>1.000); sera of Table V; solid phase peptide 2 μg/ml

Row | Sequence | Number of samples
10 | LLNSWGCKGRLVCYTS [PEPTIDE No. 10 (14B)] | 4
11 | ALETLLQNQQLLNSWGCRGRLVCYTSVRWNET [PEPTIDE No. 11 (18B)] | 1
12 | RALETLLNQQRLLNSWGCKGRLVCYTSV [PEPTIDE No. 15 (22B)] | 8

same assay, conditions: serum 258 OUDI at 1/100; solid phase peptide 2 μg/ml, cyclized

Row | Sequence | ABSORBANCE (OD)
13 | LLNSWGCKGRLVCYTS [PEPTIDE No. 10 (14B)] | 0.587
14 | ALETLLQNQQLLNSWGCRGRLVCYTSVRWNET [PEPTIDE No. 11 (18B)] | 0.373
15 | RALETLLNQQRLLNSWGCKGRLVCYTSV [PEPTIDE No. 15 (22B)] | 1.184

same assay, conditions: serum 625 at 1/50; solid phase peptide 2 μg/ml, cyclized

Row | Sequence | ABSORBANCE (OD)
16 | LLNSWGCKGRLVCYTS [PEPTIDE No. 10 (14B)] | 0.838
17 | ALETLLQNQQLLNSWGCRGRLVCYTSVRWNET [PEPTIDE No. 11 (18B)] | 0.338
18 | RALETLLNQQRLLNSWGCKGRLVCYTSV [PEPTIDE No. 15 (22B)] | 2.122

same assay, conditions: serum 3600 at 1/100; solid phase peptide 2 μg/ml, cyclized

Row | Sequence | ABSORBANCE (OD)
19 | LLNSWGCKGRLVCYTS [PEPTIDE No. 10 (14B)] | 0.482
20 | ALETLLQNQQLLNSWGCRGRLVCYTSVRWNET [PEPTIDE No. 11 (18B)] | 0.360
21 | RALETLLNQQRLLNSWGCKGRLVCYTSV [PEPTIDE No. 15 (22B)] | 0.801

same assay, conditions: serum 3613 at ¼00; solid phase peptide 2 μg/ml, cyclized

Row | Sequence | ABSORBANCE (OD)
22 | LLNSWGCKGRLVCYTS [PEPTIDE No. 10 (14B)] | 1.108
23 | ALETLLQNQQLLNSWGCRGRLVCYTSVRWNET [PEPTIDE No. 11 (18B)] | 0.837
24 | RALETLLNQQRLLNSWGCKGRLVCYTSV [PEPTIDE No. 15 (22B)] | 1.627

same assay, conditions: serum 3653 at 1/10; solid phase peptide 2 μg/ml, cyclized

Row | Sequence | ABSORBANCE (OD)
25 | LLNSWGCKGRLVCYTS [PEPTIDE No. 10 (14B)] | 0.347
26 | ALETLLQNQQLLNSWGCRGRLVCYTSVRWNET [PEPTIDE No. 11 (18B)] | 0.337
27 | RALETLLNQQRLLNSWGCKGRLVCYTSV [PEPTIDE No. 15 (22B)] | 0.380

same assay, conditions: serum 4280 at 1/50; solid phase peptide 2 μg/ml, cyclized

Row | Sequence | ABSORBANCE (OD)
28 | LLNSWGCKGRLVCYTS [PEPTIDE No. 10 (14B)] | 0.022
29 | ALETLLQNQQLLNSWGCRGRLVCYTSVRWNET [PEPTIDE No. 11 (18B)] | 0.686
30 | RALETLLNQQRLLNSWGCKGRLVCYTSV [PEPTIDE No. 15 (22B)] | 0.689

same assay, conditions: serum 6111 at 1/100; solid phase peptide 2 μg/ml, cyclized

Row | Sequence | ABSORBANCE (OD)
31 | LLNSWGCKGRLVCYTS [PEPTIDE No. 10 (14B)] | 0.596
32 | ALETLLQNQQLLNSWGCRGRLVCYTSVRWNET [PEPTIDE No. 11 (18B)] | 0.348
33 | RALETLLNQQRLLNSWGCKGRLVCYTSV [PEPTIDE No. 15 (22B)] | 1.207

same assay, conditions: serum DJOU at 1/100; solid phase peptide 2 μg/ml, cyclized

Row | Sequence | ABSORBANCE (OD)
34 | LLNSWGCKGRLVCYTS [PEPTIDE No. 10 (14B)] | 1.268
35 | ALETLLQNQQLLNSWGCRGRLVCYTSVRWNET [PEPTIDE No. 11 (18B)] | 0.482
36 | RALETLLNQQRLLNSWGCKGRLVCYTSV [PEPTIDE No. 15 (22B)] | 2.088

same assay, conditions: serum DO15 at 1/100; solid phase peptide 2 μg/ml, cyclized

Row | Sequence | ABSORBANCE (OD)
37 | LLNSWGCKGRLVCYTS [PEPTIDE No. 10 (14B)] | 1.613
38 | ALETLLQNQQLLNSWGCRGRLVCYTSVRWNET [PEPTIDE No. 11 (18B)] | 0.859
39 | RALETLLNQQRLLNSWGCKGRLVCYTSV [PEPTIDE No. 15 (22B)] | 3.693

same assay, conditions: serum MBASSI at 1/100; solid phase peptide 2 μg/ml, cyclized

Row | Sequence | ABSORBANCE (OD)
40 | LLNSWGCKGRLVCYTS [PEPTIDE No. 10 (14B)] | 1.217
41 | ALETLLQNQQLLNSWGCRGRLVCYTSVRWNET [PEPTIDE No. 11 (18B)] | 1.150
42 | RALETLLNQQRLLNSWGCKGRLVCYTSV [PEPTIDE No. 15 (22B)] | 2.010

same assay, conditions: serum Maryland at ¼00; solid phase peptide 2 μg/ml, cyclized

Row | Sequence | ABSORBANCE (OD)
43 | LLNSWGCKGRLVCYTS [PEPTIDE No. 10 (14B)] | 0.524
44 | ALETLLQNQQLLNSWGCRGRLVCYTSVRWNET [PEPTIDE No. 11 (18B)] | 0.370
45 | RALETLLNQQRLLNSWGCKGRLVCYTSV [PEPTIDE No. 15 (22B)] | 0.844

same assay, conditions: serum NGO at 1/50; solid phase peptide 2 μg/ml, cyclized

Row | Sequence | ABSORBANCE (OD)
46 | LLNSWGCKGRLVCYTS [PEPTIDE No. 10 (14B)] | 0.067
47 | ALETLLQNQQLLNSWGCRGRLVCYTSVRWNET [PEPTIDE No. 11 (18B)] | 0.335
48 | RALETLLNQQRLLNSWGCKGRLVCYTSV [PEPTIDE No. 15 (22B)] | 0.315

same assay, conditions: serum NJEM at 1/100; solid phase peptide 2 μg/ml, cyclized

Row | Sequence | ABSORBANCE (OD)
49 | LLNSWGCKGRLVCYTS [PEPTIDE No. 10 (14B)] | 0.032
50 | ALETLLQNQQLLNSWGCRGRLVCYTSVRWNET [PEPTIDE No. 11 (18B)] | 0.811
51 | RALETLLNQQRLLNSWGCKGRLVCYTSV [PEPTIDE No. 15 (22B)] | 0.939

same assay, conditions: serum WANG at 1/50; solid phase peptide 2 μg/ml, cyclized

Row | Sequence | ABSORBANCE (OD)
52 | LLNSWGCKGRLVCYTS [PEPTIDE No. 10 (14B)] | 0.698
53 | ALETLLQNQQLLNSWGCRGRLVCYTSVRWNET [PEPTIDE No. 11 (18B)] | 0.234
54 | RALETLLNQQRLLNSWGCKGRLVCYTSV [PEPTIDE No. 15 (22B)] | 2.680

same assay, conditions: summary of Tables V and VI

Row | Sequence | immunoreactivity compared with the reference peptides (in words)
55 | RALETLLNQQRLLNSWGCKGRLVCYTSV [PEPTIDE No. 15 (22B)] | most immunoreactive
